Data as given in ChEMBL document CHEMBL5620394, “Synthesis of new antiproliferative 1,3,4-substituted-pyrrolo[3,2-c]quinoline derivatives, biological and in silico insights” (Eur J Med Chem, 2023).
Calls of active or inactive are those of the source. The calls are words filed in the database; no cut-off is given here.

Key:
MCF7 [1] = assay: Antiproliferative activity against human MCF7 cells assessed as cell growth at 10 uM incubated for 48 hrs by sulforhodamine B assay relative to control; format: functional; conditions: read-out: Activity
CCRF-CEM = assay: Antiproliferative activity against human CCRF-CEM cells assessed as cell growth at 10 uM incubated for 48 hrs by sulforhodamine B assay relative to control; format: functional; conditions: read-out: Activity
SNB-75 = assay: Antiproliferative activity against human SNB-75 cells assessed as cell growth at 10 uM incubated for 48 hrs by sulforhodamine B assay relative to control; format: functional; conditions: read-out: Activity
MDA-MB-435 = assay: Antiproliferative activity against human MDA-MB-435 cells assessed as cell growth at 10 uM incubated for 48 hrs by sulforhodamine B assay relative to control; format: functional; conditions: read-out: Activity
NCI-H522 = assay: Antiproliferative activity against human NCI-H522 cells assessed as cell growth at 10 uM incubated for 48 hrs by sulforhodamine B assay relative to control; format: functional; conditions: read-out: Activity
HOP-62 = assay: Antiproliferative activity against human HOP-62 cells assessed as cell growth at 10 uM incubated for 48 hrs by sulforhodamine B assay relative to control; format: functional; conditions: read-out: Activity
SF-295 = assay: Antiproliferative activity against human SF-295 cells assessed as cell growth at 10 uM incubated for 48 hrs by sulforhodamine B assay relative to control; format: functional; conditions: read-out: Activity
MDA-MB-231 = assay: Antiproliferative activity against human MDA-MB-231 cells assessed as cell growth at 10 uM incubated for 48 hrs by sulforhodamine B assay relative to control; format: functional; conditions: read-out: Activity
SK-OV-3 = assay: Antiproliferative activity against human SK-OV-3 cells assessed as cell growth at 10 uM incubated for 48 hrs by sulforhodamine B assay relative to control; format: functional; conditions: read-out: Activity
LOX IMVI = assay: Antiproliferative activity against human LOX IMVI cells assessed as cell growth at 10 uM incubated for 48 hrs by sulforhodamine B assay relative to control; format: functional; conditions: read-out: Activity
CAKI-1 = assay: Antiproliferative activity against human CAKI-1 cells assessed as cell growth at 10 uM incubated for 48 hrs by sulforhodamine B assay relative to control; format: functional; conditions: read-out: Activity
SR = assay: Antiproliferative activity against human SR cells assessed as cell growth at 10 uM incubated for 48 hrs by sulforhodamine B assay relative to control; format: functional; conditions: read-out: Activity
NCI-H226 = assay: Antiproliferative activity against human NCI-H226 cells assessed as cell growth at 10 uM incubated for 48 hrs by sulforhodamine B assay relative to control; format: functional; conditions: read-out: Activity
IGROV-1 = assay: Antiproliferative activity against human IGROV-1 cells assessed as cell growth at 10 uM incubated for 48 hrs by sulforhodamine B assay relative to control; format: functional; conditions: read-out: Activity
UO-31 = assay: Antiproliferative activity against human UO-31 cells assessed as cell growth at 10 uM incubated for 48 hrs by sulforhodamine B assay relative to control; format: functional; conditions: read-out: Activity
T47D = assay: Antiproliferative activity against human T47D cells assessed as cell growth at 10 uM incubated for 48 hrs by sulforhodamine B assay relative to control; format: functional; conditions: read-out: Activity
PC-3 = assay: Antiproliferative activity against human PC-3 cells assessed as cell growth at 10 uM incubated for 48 hrs by sulforhodamine B assay relative to control; format: functional; conditions: read-out: Activity
MDA-MB-468 = assay: Antiproliferative activity against human MDA-MB-468 cells assessed as cell growth at 10 uM incubated for 48 hrs by sulforhodamine B assay relative to control; format: functional; conditions: read-out: Activity
MOLT-4 = assay: Antiproliferative activity against human MOLT-4 cells assessed as cell growth at 10 uM incubated for 48 hrs by sulforhodamine B assay relative to control; format: functional; conditions: read-out: Activity
KM12 = assay: Antiproliferative activity against human KM12 cells assessed as cell growth at 10 uM incubated for 48 hrs by sulforhodamine B assay relative to control; format: functional; conditions: read-out: Activity
HCT-116 = assay: Antiproliferative activity against human HCT-116 cells assessed as cell growth at 10 uM incubated for 48 hrs by sulforhodamine B assay relative to control; format: functional; conditions: read-out: Activity
A549 = assay: Antiproliferative activity against human A549 cells assessed as cell growth at 10 uM incubated for 48 hrs by sulforhodamine B assay relative to control; format: functional; conditions: read-out: Activity
HCT-15 = assay: Antiproliferative activity against human HCT-15 cells assessed as cell growth at 10 uM incubated for 48 hrs by sulforhodamine B assay relative to control; format: functional; conditions: read-out: Activity
K562 = assay: Antiproliferative activity against human K562 cells assessed as cell growth at 10 uM incubated for 48 hrs by sulforhodamine B assay relative to control; format: functional; conditions: read-out: Activity
ACHN = assay: Antiproliferative activity against human ACHN cells assessed as cell growth at 10 uM incubated for 48 hrs by sulforhodamine B assay relative to control; format: functional; conditions: read-out: Activity
EKVX = assay: Antiproliferative activity against human EKVX cells assessed as cell growth at 10 uM incubated for 48 hrs by sulforhodamine B assay relative to control; format: functional; conditions: read-out: Activity
RPMI-8226 = assay: Antiproliferative activity against human RPMI-8226 cells assessed as cell growth at 10 uM incubated for 48 hrs by sulforhodamine B assay relative to control; format: functional; conditions: read-out: Activity
UACC-257 = assay: Antiproliferative activity against human UACC-257 cells assessed as cell growth at 10 uM incubated for 48 hrs by sulforhodamine B assay relative to control; format: functional; conditions: read-out: Activity
HL-60 = assay: Antiproliferative activity against human HL-60 cells assessed as cell growth at 10 uM incubated for 48 hrs by sulforhodamine B assay relative to control; format: functional; conditions: read-out: Activity
LA-N-5 = assay: Antiproliferative activity against human LA-N-5 cells assessed as reduction in cell growth at 10 to 100 uM incubated for 4 hrs by MTS assay; format: functional, cell-based; conditions: dose 10-100 µM
UACC-62 = assay: Antiproliferative activity against human UACC-62 cells assessed as cell growth at 10 uM incubated for 48 hrs by sulforhodamine B assay relative to control; format: functional; conditions: read-out: Activity
MCF7 [2] = assay: Antiproliferative activity against human MCF7 cells assessed as reduction in cell growth at 10 to 100 uM incubated for 4 hrs by MTS assay; format: functional, cell-based; conditions: dose 10-100 µM
786-0 = assay: Antiproliferative activity against human 786-0 cells assessed as cell growth at 10 uM incubated for 48 hrs by sulforhodamine B assay relative to control; format: functional; conditions: read-out: Activity
HT-29 = assay: Antiproliferative activity against human HT-29 cells assessed as cell growth at 10 uM incubated for 48 hrs by sulforhodamine B assay relative to control; format: functional; conditions: read-out: Activity
[3] = Antiproliferative activity against human 16HBE14o- cells assessed as inhibition of cell growth incubated for 4 hrs by MTS assay; format: toxicity, cell-based; conditions: read-out: IG50
HeLa = assay: Antiproliferative activity against human HeLa cells assessed as inhibition of cell growth incubated for 4 hrs by MTS assay; format: functional
MCF7 [4] = assay: Antiproliferative activity against human MCF7 cells assessed as inhibition of cell growth incubated for 4 hrs by MTS assay; format: functional

SMILES | growth at 10 µM (MCF7 [1]) [%] | growth at 10 µM (CCRF-CEM) [%] | growth at 10 µM (SNB-75) [%] | growth at 10 µM (MDA-MB-435) [%] | growth at 10 µM (NCI-H522) [%] | growth at 10 µM (MDA-MB-231) [%] | growth at 10 µM (CAKI-1) [%] | growth at 10 µM (SR) [%] | growth at 10 µM (NCI-H226) [%] | growth at 10 µM (UO-31) [%] | growth at 10 µM (T47D) [%] | growth at 10 µM (PC-3) [%] | growth at 10 µM (MOLT-4) [%] | growth at 10 µM (K562) [%] | growth at 10 µM (RPMI-8226) [%] | growth at 10 µM (UACC-257) [%] | growth at 10 µM (HL-60) [%] | growth at 10 µM (UACC-62) [%] | growth at 10 µM (786-0) [%] | growth at 10 µM (HT-29) [%] | other results
CC(=O)c1c(C)[nH]c2c1c(-c1cc3c(cc1Br)OCO3)nc1ccccc12 | 70.2 | 92 | 84 | 95.6 | 77 | 88.2 | 95.6 | 74 | 99.7 | 61.5 | 91.4 | 85.5 | 83.8 | 85.2 | 96.9 | 105 |  |  |  |  | growth at 10 µM (HOP-62): 91.5%; growth at 10 µM (SF-295): 94.2%; growth at 10 µM (SK-OV-3): 96.7%; growth at 10 µM (LOX IMVI): 89.3%; growth at 10 µM (IGROV-1): 82.5%; growth at 10 µM (MDA-MB-468): 109%; growth at 10 µM (KM12): 91%; growth at 10 µM (HCT-116): 98.9%; growth at 10 µM (A549): 88.7%; growth at 10 µM (HCT-15): 97.2%; growth at 10 µM (ACHN): 93%; growth at 10 µM (EKVX): 89.6%
CC(=O)c1c(C)n(-c2ccccc2)c2c1c(-c1ccccc1)nc1ccccc12 | 89.6 | 95.9 | 75.1 |  | 77 | 76.3 | 72.3 | 79.5 | 84.2 | 59.6 | 102 | 85.7 | 77.6 | 76.8 | 87.5 | 98.1 | 90.7 | 70.4 | 88.5 |  | Activity (LA-N-5): Active; Activity (MCF7 [2]): Active
CC(=O)c1c(C)n(C)c2c1c(-c1ccccc1)nc1ccccc12 | 95.6 | 92.7 | 85.8 |  | 95.6 | 94.3 | 87.2 | 94.7 | 88.4 | 68.8 | 98.9 | 69.8 | 89.4 | 102 | 79.4 | 96.4 | 76.8 | 87.8 | 101 | 112 | Activity (MCF7 [2]): Active
CC(=O)c1c(C)[nH]c2c1c(-c1ccccc1)nc1ccccc12 | 73.7 | 87.2 | 42.3 |  | 72.3 | 84.4 | 54 | 71.9 | 76.7 | 36.6 | 82.5 | 78.6 | 106 | 92.6 | 87.9 | 75.1 | 82.7 | 62.4 | 76.7 | 92.8 | GI50 at 4 h [3]: 10 µM; IG50 (HeLa): 10 µM; IG50 (MCF7 [4]): 10 µM; Activity (MCF7 [2]): Active
CCOC(=O)c1c(C)n(-c2ccccc2)c2c1c(-c1ccccc1)nc1ccccc12 | 85.1 | 88.8 | 80.4 |  | 81.2 | 73.4 | 91 | 89.9 | 87 | 80.8 | 95.9 | 74.5 | 84.3 | 86.4 | 88.1 | 94.7 | 89.1 | 74.7 | 86 | 100 | 
CC(=O)c1c(C)[nH]c2c1c(-c1cc(Cl)cc(Cl)c1O)nc1ccccc12 | 74 | 58.2 | 72.8 | 85.6 | 70 | 72 | 77.6 | 52.2 | 87.4 | 56.8 | 61.9 | 71.4 | 51.6 | 74.8 | 66.7 | 118 |  |  |  |  | growth at 10 µM (HOP-62): 79.9%; growth at 10 µM (SF-295): 74.1%; growth at 10 µM (SK-OV-3): 75.2%; growth at 10 µM (LOX IMVI): 73.6%; growth at 10 µM (IGROV-1): 75.6%; growth at 10 µM (MDA-MB-468): 89.7%; growth at 10 µM (KM12): 75.1%; growth at 10 µM (HCT-116): 75.2%; growth at 10 µM (A549): 83.5%; growth at 10 µM (HCT-15): 73.1%; growth at 10 µM (ACHN): 71.2%; growth at 10 µM (EKVX): 72.8%
CC(=O)c1c(C)n(CCCCl)c2c1c(-c1ccc3c(c1)OCO3)nc1ccccc12 | 83.2 | 77.1 | 69.4 | 93.6 | 63.7 | 95.8 | 86.7 | 53.1 | 115 | 85.4 | 71.5 | 76.2 | 67.3 | 71 | 83.3 | 102 |  |  |  |  | growth at 10 µM (HOP-62): 96.7%; growth at 10 µM (SF-295): 76.7%; growth at 10 µM (SK-OV-3): 97.2%; growth at 10 µM (LOX IMVI): 90%; growth at 10 µM (IGROV-1): 93.9%; growth at 10 µM (MDA-MB-468): 101%; growth at 10 µM (KM12): 87.3%; growth at 10 µM (HCT-116): 93.6%; growth at 10 µM (A549): 81.7%; growth at 10 µM (HCT-15): 87%; growth at 10 µM (ACHN): 84.4%; growth at 10 µM (EKVX): 86%
CC(=O)c1c(C)n(-c2ccccc2)c2c1c(-c1ccc(C)o1)nc1ccccc12 | 88.4 | 74.2 | 93.8 |  | 71.1 | 73.3 | 85.3 | 80.3 | 41 | 79.1 | 99.7 | 69.6 | 76.7 | 71.6 | 70.5 | 90.8 | 63.4 | 85.1 | 93.6 | 68.4 | Activity (LA-N-5): Active
